According to patent US7785850B2, “Heterologus expression of trypanothione reductase from Leishmania donovani in a prokaryotic system” (priority 2004, dated 2010):

Experiments:
[1] = target: T1, recombinant Leishmania donovani Trypanothione Reductase (LDdTR) (Leishmania donovani, UniProt P39050, S2A); test: biochemical
T1 construct: GST (pET-41a vector fusion) (N, cleaved yes); made in house; host or cells: E. coli BL21(DE3), pET41a (clone LddTRpET41aDE3)
Protocol: Trypanothione reductase activity was routinely assayed spectrophotometrically at 340 nm, as previously described (25). The reaction mixture contained 100 mM HEPES pH 7.8, 20 μM EDTA, 80 μM NADPH and 50 μM TS2. The reaction was allowed to proceed for 5 min. and change in O.D. was monitored every after 30 sec. One unit of enzyme activity is defined, as that amount of enzyme required to convert 1 μmol of NADPH to NADP per minute at 25° C. […] For comparative kinetic studies, assay was performed at 50 μM NADPH and varying concentration of TS2 (20, 40, 60, 80 & 100) and at 50 μM TS2 and varying concentration of NADPH (20, 40, 60, 80, 100 & 150).

[2] = target: T2, recombinant Leishmania donovani Trypanothione Reductase (Leishmania donovani, UniProt P39050, S2A); test: Enzyme assay, kinetics and substrate specificity of recombinant purified trypanothione reductase; format: biochemical; conditions: for Km / Vmax: TS2 varied at 50 μM NADPH, NADPH varied at 50 μM TS2
T2 construct: GST (pET-41a vector fusion) (N, cleaved yes); made in house; host or cells: E. coli BL21(DE3), pET41a (clone LddTRpET41aDE3)
Protocol: Trypanothione reductase activity was routinely assayed spectrophotometrically at 340 nm, as previously described (25). The reaction mixture contained 20-100 mM HEPES pH 7.2-7.8, 20 μM-1 mM EDTA, 80-200 μM NADPH and 15-50 μM TS2. One unit of enzyme activity is defined as that amount of enzyme required to convert 1 μmol of NADPH to NADP per minute at 25° C. Protein was assayed according to the method of Bradford (1976) as supplied by Bangalore Genei with Bovine serum albumin as a standard. For comparative kinetic studies, assay was performed at 50 μM NADPH and at 5-100 μM concentrations of TS2 and at 50 μM TS2 and at 10-200 μM concentrations of NADPH.
Trypanothione reductase activity was routinely assayed spectrophotometrically at 340 nm, as previously described (25). The reaction mixture contained 100 mM HEPES pH 7.8, 20 μM EDTA, 80 μM NADPH and 50 μM TS2. The reaction was allowed to proceed for 5 min. and change in O.D. was monitored every after 30 sec. One unit of enzyme activity is defined, as that amount of enzyme required to convert 1 μmol of NADPH to NADP per minute at 25° C. The purified recombinant enzyme has a specific activity of 12.5 U/mg. protein. Purification procedure leads to 20 fold purification from the soluble content of E. coli lysate. The total yield was 16 mg/lit (FIG. 7 describes the fold purification of Recombinant Leishmania donovani Trypanothione Reductase). […] For comparative kinetic studies, assay was performed at 50 μM NADPH and varying concentration of TS2 (20, 40, 60, 80 & 100) and at 50 μM TS2 and varying concentration of NADPH (20, 40, 60, 80, 100 & 150).

| Compound | Km [2] [µM] | Vmax [2] [μM/ml/min] | Substrate specificity (reduction catalyzed by purified protein) [2] | also measured |
| --- | --- | --- | --- | --- |
| Nc1nc(N)nc(Nc2ccc([As]=O)cc2)n1 (centres unmarked) [Melarsen Oxide, Melarsen oxide] | – | – | – | inhibition at 50 µM ([1]; read-out: Inhibition of TR): > 95% |
| NC(=O)C1=CN([C@@H]2O[C@H](COP(=O)(O)OP(=O)(O)OC[C@H]3O[C@@H](n4cnc5c(N)ncnc54)[C@H](OP(=O)(O)O)[C@@H]3O)[C@@H](O)[C@H]2O)C=CC1 [NADPH, Nicotinidine adenine dinucleotide phosphate] | 20 | 125 | – | – |
| O.O.O.O=C([O-])[C@H]([O-])[C@@H]([O-])C(=O)[O-].O=C([O-])[C@H]([O-])[C@@H]([O-])C(=O)[O-].[K+].[K+].[Sb+3].[Sb+3] [SbIII, Potassium antimony tartrate] | – | – | – | Effect on TR activity (in words) ([1]; studied at 50 and 100 μM concentration): profound effect on TR activity in comparison to SAG |
| N[C@@H](CCC(=O)N[C@H]1CSSC[C@H](NC(=O)CC[C@H](N)C(=O)O)C(=O)NCC(=O)NCCCNCCCCNC(=O)CNC1=O)C(=O)O [TS2, Oxidized Trypanothione] | 50 | 200 | specifically catalyzed reduction | – |
| Oxidised Glutathione [oxidized glutathione] | – | – | did not catalyze reduction | – |
